# Laboratory results: article PMC10039877 (Scientific Reports, 2023)
# Values joined by “and” are separate entries in the source; they are usually repeats but may differ in a detail not shown here. Equal entries are not always repeated.
# Target: T1, BChE (Equus caballus, UniProt P81908)
# Assay: biochemical
# Assay type: biochemical
# Settings: BChE: IC50 (μM) ± SEM, in vitro, triplicates
# T1 sequence (P81908 whole entry): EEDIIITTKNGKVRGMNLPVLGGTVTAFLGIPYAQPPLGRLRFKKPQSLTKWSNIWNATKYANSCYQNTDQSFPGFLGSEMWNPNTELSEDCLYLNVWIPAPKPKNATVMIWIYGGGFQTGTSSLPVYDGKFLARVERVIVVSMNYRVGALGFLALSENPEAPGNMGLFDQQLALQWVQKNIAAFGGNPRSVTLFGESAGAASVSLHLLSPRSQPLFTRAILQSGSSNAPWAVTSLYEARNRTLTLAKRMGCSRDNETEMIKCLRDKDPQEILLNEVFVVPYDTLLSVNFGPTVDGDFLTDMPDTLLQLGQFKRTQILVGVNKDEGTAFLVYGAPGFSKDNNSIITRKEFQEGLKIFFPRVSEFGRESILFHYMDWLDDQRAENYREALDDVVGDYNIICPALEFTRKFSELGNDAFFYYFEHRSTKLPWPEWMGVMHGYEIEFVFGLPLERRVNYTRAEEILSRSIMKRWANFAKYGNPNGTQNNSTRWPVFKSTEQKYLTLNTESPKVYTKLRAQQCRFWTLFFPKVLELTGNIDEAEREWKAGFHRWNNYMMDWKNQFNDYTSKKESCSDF
row,Compound,IC50 [µM]
1,"Cc1cccc(NC(=O)OCCN(C)C(=O)C(=O)c2c[nH]c3ccccc23)c1 [17a, 2-(2-(1H-indol-3-yl)-N-methyl-2-oxoacetamido)ethyl m-tolylcarbamate]",> 50
2,"CCc1ccc(NC(=O)OCCN(C)C(=O)C(=O)c2c[nH]c3ccccc23)cc1 [17b, 2-(2-(1H-indol-3-yl)-N-methyl-2-oxoacetamido)ethyl (4-ethylphenyl)carbamate]",> 50
3,"Cc1ccccc1NC(=O)OCCN(C)C(=O)C(=O)c1c[nH]c2ccccc12 [17c, 2-(2-(1H-indol-3-yl)-N-methyl-2-oxoacetamido)ethyl o-tolylcarbamate]",> 50
4,"CN(CCOC(=O)Nc1cccc(Cl)c1)C(=O)C(=O)c1c[nH]c2ccccc12 [17d, 2-(2-(1H-indol-3-yl)-N-methyl-2-oxoacetamido)ethyl (3-chlorophenyl)carbamate]",> 50

# Same assay, conditions: in vitro, triplicates; read-out: BChE: IC50 (μM) ± SEM
row,Compound,IC50
1,"CN(CC(=O)Nc1ccccc1F)C(=O)C(=O)c1c[nH]c2ccccc12 [8a, N-(2-((2-fluorophenyl)amino)-2-oxoethyl)-2-(1H-indol-3-yl)-N-methyl-2-oxoacetamide]",> 50 µM
2,"COc1ccc(NC(=O)CN(C)C(=O)C(=O)c2c[nH]c3ccccc23)c(C)c1 [8b, 2-(1H-indol-3-yl)-N-(2-((4-methoxy-2-methylphenyl)amino)-2-oxoethyl)-N-methyl-2-oxoacetamide]",> 50 µM
3,"Cc1cc(C)c(NC(=O)CN(C)C(=O)C(=O)c2c[nH]c3ccccc23)c(C)c1 [8c, 2-(1H-indol-3-yl)-N-(2-(mesitylamino)-2-oxoethyl)-N-methyl-2-oxoacetamide]",< 50 µM and 3.95 µM and 3.94 µM
4,"Cc1ccccc1NC(=O)CN(C)C(=O)C(=O)c1c[nH]c2ccccc12 [8d, 2-(1H-indol-3-yl)-N-methyl-2-oxo-N-(2-oxo-2-(o-tolylamino)ethyl)acetamide]",< 50 µM and 19.6 µM
5,"COc1ccccc1NC(=O)CNC(=O)C(=O)c1c[nH]c2ccccc12 [13a, 2-(1H-indol-3-yl)-N-(2-((2-methoxyphenyl)amino)-2-oxoethyl)-2-oxoacetamide]",> 50 µM
6,"COc1ccc(NC(=O)CNC(=O)C(=O)c2c[nH]c3ccccc23)cc1 [13b, 2-(1H-indol-3-yl)-N-(2-((4-methoxyphenyl)amino)-2-oxoethyl)-2-oxoacetamide]",> 50 µM
7,"Cc1ccc(NC(=O)CNC(=O)C(=O)c2c[nH]c3ccccc23)cc1C [13c, N-(2-((3,4-dimethylphenyl)amino)-2-oxoethyl)-2-(1H-indol-3-yl)-2-oxoacetamide]",> 50 µM
8,"CCCCc1ccc(NC(=O)CNC(=O)C(=O)c2c[nH]c3ccccc23)cc1 [13d, N-(2-((4-butylphenyl)amino)-2-oxoethyl)-2-(1H-indol-3-yl)-2-oxoacetamide]",> 50 µM
9,"Cc1cc(C)c(NC(=O)CNC(=O)C(=O)c2c[nH]c3ccccc23)c(C)c1 [13e, 2-(1H-indol-3-yl)-N-(2-(mesitylamino)-2-oxoethyl)-2-oxoacetamide]",> 50 µM
10,"Cc1cc(C)cc(NC(=O)CNC(=O)C(=O)c2c[nH]c3ccccc23)c1 [13f, N-(2-((3,5-dimethylphenyl)amino)-2-oxoethyl)-2-(1H-indol-3-yl)-2-oxoacetamide]",> 50 µM
11,"Cc1ccccc1NC(=O)CNC(=O)C(=O)c1c[nH]c2ccccc12 [13g, 2-(1H-indol-3-yl)-2-oxo-N-(2-oxo-2-(o-tolylamino)ethyl)acetamide]",> 50 µM
12,"Cc1ccc(NC(=O)CNC(=O)C(=O)c2c[nH]c3ccccc23)cc1Cl [13h, N-(2-((3-chloro-4-methylphenyl)amino)-2-oxoethyl)-2-(1H-indol-3-yl)-2-oxoacetamide]",> 50 µM
13,"COc1ccc(NC(=O)CNC(=O)C(=O)c2c[nH]c3ccccc23)c(OC)c1 [13i, N-(2-((2,4-dimethoxyphenyl)amino)-2-oxoethyl)-2-(1H-indol-3-yl)-2-oxoacetamide]",> 50 µM
14,"COc1cccc(NC(=O)CNC(=O)C(=O)c2c[nH]c3ccccc23)c1 [13j, 2-(1H-indol-3-yl)-N-(2-((3-methoxyphenyl)amino)-2-oxoethyl)-2-oxoacetamide]",> 50 µM
15,"O=C(CNC(=O)C(=O)c1c[nH]c2ccccc12)Nc1ccccc1F [13k, N-(2-((2-fluorophenyl)amino)-2-oxoethyl)-2-(1H-indol-3-yl)-2-oxoacetamide]",> 50 µM

# Target: T1, BChE
# Assay: Enzyme kinetics study (Lineweaver-Burk plots) of 8c on BChE
# Assay type: biochemical
# Settings: BTCI substrate 0.05 to 0.8 mM, Lineweaver-Burk
# Method: The inhibition type was determined by analyzing the Lineweaver–Burk plots.
# All common chemicals were purchased from commercial sources and used without further purification. The water used was distilled water. Reaction progress was monitored using analytical thin layer chromatography (TLC, detected by UV light 254 nm) on precoated silica gel HSGF254 plates (Qingdao Haiyang Chemical Plant, China). Column chromatography was performed on silica gel (200 ~ 300 mesh; Qingdao Dingkang Chemical Inc.). […] Proton coupling patterns are described as singlet (s), doublet (d), double doublet (dd), triplet (t), and multiplet (m). ESI–MS date were recorded on a Waters Quattro Premier XE triquadrupole mass spectrometer (Waters Corporation, USA), while ESI-HRMS date were recorded on a Q-TOF Priemier mass spectrometer (Micromass, Manchester, UK). The enzyme kinetic assay was performed on an EnSpire Enzyme Marker (Thermos Fisher, USA).
# Kinetic studies were performed in same method as described in BChE inhibition assays. The substrate (BTCI) at five concentrations (from 0.05 to 0.8 mM) was determined for 8c at different […] to reveal its inhibition model, and reciprocal plots of 1/V versus 1/[S]. The kinetic parameters and apparent inhibition constants were calculated by the “Enzyme kinetics” module of Prism.
Compound,Ki [µM],Vmax
"Cc1cc(C)c(NC(=O)CN(C)C(=O)C(=O)c2c[nH]c3ccccc23)c(C)c1 [8c, 2-(1H-indol-3-yl)-N-(2-(mesitylamino)-2-oxoethyl)-N-methyl-2-oxoacetamide]",3.27,105.26

# Same assay, conditions: Lineweaver-Burk plot
row,Compound,inhibition type
1,"Cc1cc(C)c(NC(=O)CN(C)C(=O)C(=O)c2c[nH]c3ccccc23)c(C)c1 [8c, 2-(1H-indol-3-yl)-N-(2-(mesitylamino)-2-oxoethyl)-N-methyl-2-oxoacetamide]",mixed-type

# Target: T1, BChE
# Assay: not given
# Set-up: method as in PMID 33759552
# Settings: in vitro; found in previous study; read-out: BChE IC50 of starting compound; cited from earlier work
row,Compound,IC50 [µM]
1,COc1cccc(NC(=O)CN(C)C(C)C(=O)c2c[nH]c3ccccc23)c1 (stereo not drawn) [compound 970180],4.24 ± 0.16

# Target: T1, BChE
# Assay: not given
# Set-up: method as in PMID 33759552
# Settings: previous study; cited from earlier work
row,Compound,inhibition type
1,COc1cccc(NC(=O)CN(C)C(C)C(=O)c2c[nH]c3ccccc23)c1 (stereo not drawn) [compound 970180],mixed-type
